Reference: patent US20250017964A1, “ENGINEERING OR INDUCING PDGF AND/OR PDGFR SIGNALING TO ENHANCE NK CELL THERAPY” (City of Hope, priority 2021, published 2025)
*1 amine or outer side, *2 acyl side, *3 side chain or, on linkers, in order; H or OH if unused. Where a SMILES comes first, the peptide text is derived from it. Bridges are numbered along the chain shown (N, C = ends). Roman numbers before positions name the chains, in order. [ ]: non-standard residue; d: D form. Actinocin(9to1) = Cc1c2oc3c(C)ccc(C(=O)[*:1])c3nc-2c(C(=O)[*:2])c(N)c1=O; NMeV = CN[C@H](C(=O)O)C(C)C; Sar = CNCC(=O)O

Assays:
[1] = system: IL-15-induced PDGFRβ expression; experiment: Inhibition assay: IL-15-induced PDGFRβ expression after inhibitor pretreatment, flow cytometry; type: cell-based, human; conditions: washed, IL-15 10 ng/ml 24 h; for inhibition of PDGFRβ expression: DMSO control
Procedure: FIGS. 2A-2I. […] (A-B) Primary NK cells were treated with IL-15 (10 ng/ml) for the indicated times. mRNA levels of PDGFRB at different time points (A) (n=3) or at 1 h (B) (n=10) were examined by qPCR. (C-D) Primary NK cells were pretreated with actinomycin D (ActD, 5., g/ml) (C) or cycloheximide (CHX, 20 μg/ml) (D) for 1 h, washed twice with RPMI-1640, and then treated with IL-15 (10 ng/ml) for 24 h. DMSO was used as a control. Expression levels of PDGFRβ were examined by flow cytometry (n=5). […] (E) Primary NK cells were pretreated with wortmannin (1 μM), afuresertib (10 μM), TPCA-1 (1 μM), rapamycin (10 μM), torin1 (10 μM), decernotinib (10 μM), C118-9 (10 μM), STAT5-IN-1 (10 μM), AZD6244 (10 μM), or CI-1040 (10 μM) for 1 h, washed twice with RPMI 1640, and then treated with IL-15 (10 ng/ml) for 24 h. DMSO was used as control. Data shown are % of inhibition (n=5). The mean value of the inhibitory rate is shown. […] (G-I) Binding of p65 to the PDGFRB promoter in IL-15-treated NK cells (G) or resting NK cells (H) as determined by ChIP-qPCR or PCR (I) (n=3). Data represent three independent experiments. Data shown are means SD. NS, not significant. *P<0.05, **P<0.01, ***P<0.001, and ****P<0.0001.
FIGS. 8A-8E. […] (A) Scheme for the three IL-15 signaling pathways and their inhibitors. (B) Representative dot plots of PDGFRβ expression in NK cells treated with specific inhibitors. (C) Binding sites for p65 in the promoter regions of PDGFRB and PDGF-D genes (predicted from http://jaspar.genereg.net). […] The cells were collected for an immunoblot using anti-phosphor (p)-p65, anti-p65, and anti-actin antibodies. The ratios of p-p65 to actin were calculated using ImageJ (n=3). Data shown represent the mean±SD. NS, not significant, **P<0.01, ****P<0.0001.
(§1) NK cells were cultured in RPMI 1640 with 10% heat-inactivated FBS (Gibco) at 37° C. in a 5% CO2 humidified incubator. For NK cell transduction, PDGFRB cDNA ORF clone (Cat: HG10514-G) was purchased from Sino Biological and cloned into pCDH-CMV-MCS-EF1-copGFP lentivirus vector (System Biosciences). To produce lentivirus, we transfected the lentiviral transfer vector DNA, together with psPAX2 packaging (Addgene) and pMD2.G envelope plasmid DNA (Addgene), into HEK293T cells; using a polyethyenimine (PEI) transfection protocol (Polysciences). Concentrated lentivirus was added to primary NK cells cultured in RPMI 1640 medium supplemented with 10% FCS and 10 jig/mL polybrene with 2,000×g centrifugation for 2 h. Cells were cultured for an additional 48 h. […] The cells were then collected for flow cytometry analysis. For the inhibition assay, NK cells were pretreated with the indicated inhibitors for 1 h, washed twice with RPMI 1640. and then treated with IL-15 for 24 h.
Cells were stained with the indicated cell-surface markers and/or fixed/permeabilized using a Fixation/Permeabilization Kit (eBioscience). For intracellular staining of IFN-γ and PDGF-D, 5 μg/ml Brefeldin A (BioLegend) was added for 4 h before cell harvest. Intracellular staining of Ki67 was performed by fixing and permeabilizing with the Foxp3/Transcription Factor Staining Kit (eBioscience). For CD107a staining, CD107a antibody was added into the culture for 4 h in the presence of Brefeldin A. Annexin V staining was performed using an FITC Annexin V Apoptosis Detection Kit according to the manufacturer's protocol (BD Biosciences). Flow cytometry analysis was performed on BD LSRFortessa X-20 (BD Biosciences). Data were analyzed using NovoExpress software (Agilent Technologies).

[2] = system: PDGFRβ expression in human NK cells; experiment: Cytokine-induced PDGFRβ expression in purified human NK cells, flow cytometry; type: cell-based; conditions: cytokine 10 ng/ml, 24 h; IL-15 effect dose- and time-dependent
Text: Data shown are the percentages of PDGFRβ^+ NK cells among total NK cells (n=5). […] Bar=20 μm. […] Data represent three independent experiments. Data shown are means SD.
FIGS. 7A-7F. […] Data shown are representative histograms and mean fluorescence intensity (MFI) of PDGFRα. […] Expression levels of PDGFRβ were examined by flow cytometry (n=6). […] Data shown are the percentages of PDGFRβ^+ NK cells among total NK cells (n=5). […] Data shown are representative histograms with MFI of PDGFRβ expression. (F) Expression levels of PDGFRβ on NK cells from IL-15 transgenic (Tg) mice were determined by flow cytometry. Data shown are representative histograms. Data represent three independent experiments.
as §1
Cells were stained with the indicated cell-surface markers and/or fixed/permeabilized using a Fixation/Permeabilization Kit (eBioscience). For intracellular staining of IFN-γ and PDGF-D, 5 μg/ml Brefeldin A (BioLegend) was added for 4 h before cell harvest. Intracellular staining of Ki67 was performed by fixing and permeabilizing with the Foxp3/Transcription Factor Staining Kit (eBioscience).

[3] = inhibitor 1 μM pretreatment 1 h
[4] = inhibitor 10 μM pretreatment 1 h

COC[C@H]1OC(=O)c2coc3c2[C@@]1(C)C1=C(C3=O)[C@@H]2CCC(=O)[C@@]2(C)C[C@H]1OC(C)=O [wortmannin]
inhibition of PDGFRβ expression [1, 3]: ~70%

CC[C@@](C)(Nc1ccnc(-c2c[nH]c3ncccc23)n1)C(=O)NCC(F)(F)F [decemotinib, decernotinib]
effect on IL-15-induced PDGFRβ expression [1, 4]: approximately one third

NC(=O)Nc1sc(-c2ccc(F)cc2)cc1C(N)=O [TPCA-1]
effect on IL-15-stimulated PDGFRβ expression [1, 3]: completely prevented

C[C@@H]1C[C@@H]([C@H](O)CC2CC(=O)NC(=O)C2)C(=O)[C@@H](C)C1 [cycloheximide]
effect on IL-15-induced PDGFRβ expression ([1]; CHX, 20 μg/ml pretreatment 1 h): completely inhibited

Cc1c2oc3c(C)ccc(C(=O)N[C@@H]4C(=O)N[C@H](C(C)C)C(=O)N5CCC[C@H]5C(=O)N(C)CC(=O)N(C)[C@@H](C(C)C)C(=O)O[C@@H]4C)c3nc-2c(C(=O)N[C@@H]2C(=O)N[C@H](C(C)C)C(=O)N3CCC[C@H]3C(=O)N(C)CC(=O)N(C)[C@@H](C(C)C)C(=O)O[C@@H]2C)c(N)c1=O [actinomycin D] (I: T[dV]P[Sar][NMeV] / II: T[dV]P[Sar][NMeV]; ester I:1-I:C, II:1-II:C; linker I:N-II:N via Actinocin(9to1))
effect on IL-15-induced PDGFRβ expression ([1]; ActD pretreatment 1 h): no longer induced PDGFRβ expression

IL-18: recombinant human IL-18 (B001-5)
PDGFRβ expression [2]: ineffective

CCC(=O)N1CCN(c2ccc(-n3c(=O)ccc4cnc5ccc(-c6cnc7ccccc7c6)cc5c43)cc2C(F)(F)F)CC1 [torin1]
effect on IL-15-induced PDGFRβ expression [1, 4]: dramatically and significantly blocked

O=C(NOCC1CC1)c1ccc(F)c(F)c1Nc1ccc(I)cc1Cl [CI-1040]
effect on IL-15-induced PDGFRβ expression [1, 4]: either little inhibition or even promoted

O=C(N/N=C/c1coc2ccccc2c1=O)c1cccnc1 [STAT5-IN-1]
effect on IL-15-induced PDGFRβ expression [1, 4]: either little inhibition or even promoted

Cn1cnc2c(F)c(Nc3ccc(Br)cc3Cl)c(C(=O)NOCCO)cc21 [AZD6244]
effect on IL-15-induced PDGFRβ expression [1, 4]: either little inhibition or even promoted

Cn1ncc(Cl)c1-c1cc(C(=O)N[C@H](CN)Cc2cccc(F)c2)sc1Cl [afuresertib]
inhibition of PDGFRβ expression [1, 4]: ~70%
